Measurements as given in US20100292081A1, “Herbicidal Control Using Sulfentrazone and Dithiopyr” (FMC Corporation, priority 2009, published 2010).

Assays:
Format in all cases: in vivo
[1] = system: large crabgrass (Digitaria sanguinalis); experiment: Pre-emergent herbicidal evaluation on turf plots (Example 1), large crabgrass
Text: (§1) The presence of a synergistic effect between the two active ingredients is established with the aid of the Colby equation (see Colby, S. R., “Calculating Synergistic and Antagonistic Responses of Herbicide Combinations”, Weeds 1967, 15, pg 20-22): E=X+Y−(XY/100).
(§2) Using the method of Colby, the presence of a synergistic interaction between two active ingredients is established by first calculating the expected activity, ‘E’, of the mixture based on activities of the two components applied alone. In the equation above, ‘X’ is the herbicidal activity in percentage control of sulfentrazone applied alone at rate ‘x’. The ‘Y’ term is the herbicidal activity of dithiopyr applied alone at rate ‘y’. The equation calculates ‘E’, the herbicidal activity of the mixture of ‘X’ at rate ‘x’ with ‘Y’ at rate ‘y’. If ‘E’ is lower than the observed activity, synergy is present. If the herbicidal effects are strictly additive, and no interaction has occurred, ‘E’ will be equal to or higher than the observed activity.
(§3) Test compositions containing sulfentrazone (Dismiss™ Turf Herbicide), dithiopyr (DIMENSION® Ultra 40WP Specialty Herbicide) and mixtures thereof, were diluted with water to provide the appropriate test rate concentrations.
(§4) The size of each experimental turf plot was 4 feet by 4 feet, treating the inner 10 ft^2 per plot. The application of each test composition was performed with a pressurized back-pack sprayer, calibrated to spray between 10 and 15 gallons per acre. Four replications were made for each test rate along an untreated control plot.
In order t to provide a measure of the effectiveness of a herbicide's performance weed control ratings were based on visual observations of the presence or absence of various weeds or of symptoms (necrosis, wilting, curling of leaves, discoloration etc.) on weeds compared to lack of symptoms. Ratings are based on the 0 to 100 rating system, where 0 equals no control and 100 equals complete control, which generally makes use of direct-percentage figures. In this system the standard basis for comparison is an untreated weedy check. […]

[2] = system: parsley piert (Alchenilla arvensis); experiment: Pre-emergent herbicidal evaluation on turf plots (Example 1), parsley piert
Text: as §1, §2, §3, §4
(§5) Control of large crabgrass (Digitaria sanguinalis), parsley piert (Alchenilla arvensis), common chickweed (Stellaria media) and shiny cudweed (Gnaphalium spicatum) was evaluated at 23 days after treatment (DAT) for each test rate. In order t to provide a measure of the effectiveness of a herbicide's performance weed control ratings were based on visual observations of the presence or absence of various weeds or of symptoms (necrosis, wilting, curling of leaves, discoloration etc.) on weeds compared to lack of symptoms. […]

[3] = system: shiny cudweed (Gnaphalium spicatum); experiment: Pre-emergent herbicidal evaluation on turf plots (Example 1), shiny cudweed
Text: as §1, §2, §3, §4, §5

[4] = system: curly dock (Rumex crispus); experiment: Post-emergence control of curly dock on turf plots (Example 3)
Text: as §1, §2
(§6) Control of large crabgrass (Digitaria sanguinalis), parsley piert (Alchenilla arvensis), common chickweed (Stellaria media) and shiny cudweed (Gnaphalium spicatum) was evaluated at 23 days after treatment (DAT) for each test rate. In order t to provide a measure of the effectiveness of a herbicide's performance weed control ratings were based on visual observations of the presence or absence of various weeds or of symptoms (necrosis, wilting, curling of leaves, discoloration etc.) on weeds compared to lack of symptoms. Ratings are based on the 0 to 100 rating system, where 0 equals no control and 100 equals complete control, which generally makes use of direct-percentage figures. In this system the standard basis for comparison is an untreated weedy check. Counts are made of each weed species found in the untreated area of the study. This provides a basis to give a precise representation of both weed infestation and degree of control provided by various chemical treatments. Counts are made on randomly selected areas which are generally 1 square foot to 1 square yard in size. Ratings are made for each weed species found in the untreated treatments. For example, a random area in an untreated plot has 10 yellow nutsedge plants per square foot equaling 0% control. A treated plot has only 1 yellow nutsedge plant found in the randomly selected area equaling 90% control.
as §3, §4
(§7) Pre-emergence control of crabgrass (Digitaria sp.) was evaluated 180 days after treatment (DAT). Post-emergence control of curly dock (Rumex crispus) and shiny cudweed (Gnaphalium spicatum) parsley were evaluated at 65 days after treatment for each test rate. The evaluation results were compared with results observed in untreated control plots in the same trials as described in Example 1 to determine % control and are summarized in Table 3 below. There was no damage to the turf grass at any rate tested. The Colby equation expected values are also in Table 3.

[5] = system: shiny cudweed (Gnaphalium spicatum); experiment: Post-emergence control of shiny cudweed on turf plots (Example 3)
Text: as §1, §2, §6, §3, §4, §7

[6] = system: crabgrass (Digitaria sp.); experiment: Early post-emergent control of crabgrass on turf plots (Example 4); conditions: 1 to 4 leaf stage, 45 DAT, X-77 0.25% V/V
Text: as §1, §2, §6
Test compositions containing sulfentrazone (Dismiss™ Turf Herbicide), dithiopyr (DIMENSION® Ultra 40WP Specialty Herbicide) and mixtures thereof, were diluted with water to provide the appropriate test rate concentrations. A non-ionic surfactant (X-77) was added to each test solution, 0.25% V/V. […]
Control of crabgrass (Digitaria sp.) was evaluated at 45 days after treatment for each test rate. […]

[7] = system: broadleaf weeds (medic, buckhorn plantain, clover, red sorrel, dandelion); experiment: Post-emergent herbicidal evaluation on turf plots (Example 2), broadleaf weeds in total; conditions: 45 DAT, NIS 0.25% V/V
Text: as §1, §2, §6
Test compositions containing sulfentrazone (Dismiss™ Turf Herbicide), dithiopyr (DIMENSION® Ultra 40WP Specialty Herbicide) and mixtures thereof, were diluted with water to provide the appropriate test rate concentrations. A non-ionic surfactant (NIS) was added to each test solution, 0.25% V/V.
as §4, with “plot. The post-emergence application of” for “plot. The application of”
Control of broadleaf weeds was evaluated at 45 days after treatment (DAT) for each test rate. The broadleaf weeds included medic (Medicago sp.), buckhorn plantain (Plantago lanceolata), clover (Trifolium sp.), red sorrel (Rumex acetosella) and dandelion (Traxacum afficinale). Percent control of the broadleaf weeds was reported as a total number of broadleaf weeds controlled, not as individual species. The evaluation results were compared with results observed in untreated control plots in the same trials as described in Example 1 to determine % control and are summarized in Table 2 below. There was no damage to the turf grass at any rate tested. The Colby equation expected values are also in Table 2.

[8] = system: crabgrass (Digitaria sp.); experiment: Pre-emergence control of crabgrass on turf plots (Example 3)
Text: as §1, §2, §6, §3, §4, §7

[9] = system: common chickweed (Stellaria media); experiment: Pre-emergent herbicidal evaluation on turf plots (Example 1), common chickweed
Text: as §1, §2, §3, §4, §5

CSC(=O)c1c(C(F)F)nc(C(F)(F)F)c(C(=O)SC)c1CC(C)C [Dithiopyr, S,S′-dimethyl 2-(difluoromethyl)-4-(2-methylpropyl)-6-(trifluoromethyl)-3,5-pyridinedicarbothiolate]
% Control of Weeds Large Crabgrass 132 DAT ([1]; 0.5 lb/ac): 88% | % Control of Weeds Parsley Piert 23 DAT ([2]; 0.5 lb/ac): 38% | % Control of Weeds Shiny Cudweed 23 DAT ([3]; 0.5 lb/ac): 29% | % Control of Weeds Curly Dock 65 DAT Post-emergent application ([4]; 0.0125 lb/ac): 36% | % Control of Weeds Curly Dock 65 DAT Post-emergent application ([4]; 0.25 lb/ac): 60% | % Control of Weeds Shiny Cudweed 65 DAT Post-emergent application ([5]; 0.0125 lb/ac): 53% | % Control of Weeds Shiny Cudweed 65 DAT Post-emergent application ([5]; 0.25 lb/ac): 60% | % Control of Crabgrass ([6]; 0.25 lb/ac): 50% | % Control of Crabgrass ([6]; 0.5 lb/ac): 88% | % Broadleaf Weed Cover ([7]; 0.125 lb/ac): 21% | % Control of Broadleaf Weeds ([7]; 0.125 lb/ac): 0% | % Broadleaf Weed Cover ([7]; 0.25 lb/ac): 8% | % Control of Broadleaf Weeds ([7]; 0.25 lb/ac): 55% | % Control of Weeds Crabgrass 180 DAT Pre-emergent application ([8]; 0.0125 lb/ac): 59% | % Control of Weeds Crabgrass 180 DAT Pre-emergent application ([8]; 0.25 lb/ac): 23% | % Control of Weeds Common Chickweed 23 DAT ([9]; 0.5 lb/ac): 53%

Cc1nn(-c2cc(NS(C)(=O)=O)c(Cl)cc2Cl)c(=O)n1C(F)F [Sulfentrazone, N-[2,4-dichloro-5-[4-difluoromethyl-4,5-dihydro-3-methyl-5-oxo-1H-1,2,4-triazol-1-yl]phenyl]methanesulfonamide]
% Control of Weeds Large Crabgrass 132 DAT ([1]; 0.25 lb/ac): 23% | % Control of Weeds Large Crabgrass 132 DAT ([1]; .0125 lb/ac): 7% | % Control of Weeds Parsley Piert 23 DAT ([2]; 0.25 lb/ac): 47% | % Control of Weeds Parsley Piert 23 DAT ([2]; .0125 lb/ac): 40% | % Control of Weeds Shiny Cudweed 23 DAT ([3]; 0.25 lb/ac): 43% | % Control of Weeds Shiny Cudweed 23 DAT ([3]; .0125 lb/ac): 31% | % Control of Weeds Curly Dock 65 DAT Post-emergent application ([4]; 0.0625 lb/ac): 0% | % Control of Weeds Curly Dock 65 DAT Post-emergent application ([4]; 0.125 lb/ac): 16% | % Control of Weeds Curly Dock 65 DAT Post-emergent application ([4]; 0.25 lb/ac): 20% | % Control of Weeds Shiny Cudweed 65 DAT Post-emergent application ([5]; 0.0625 lb/ac): 30% | % Control of Weeds Shiny Cudweed 65 DAT Post-emergent application ([5]; 0.125 lb/ac): 50% | % Control of Weeds Shiny Cudweed 65 DAT Post-emergent application ([5]; 0.25 lb/ac): 50% | % Control of Crabgrass ([6]; 0.125 lb/ac): 30% | % Control of Crabgrass ([6]; 0.25 lb/ac): 36% | % Broadleaf Weed Cover ([7]; 0.125 lb/ac): 15% | % Control of Broadleaf Weeds ([7]; 0.125 lb/ac): 16% | % Broadleaf Weed Cover ([7]; 0.25 lb/ac): 10% | % Control of Broadleaf Weeds ([7]; 0.25 lb/ac): 44% | % Control of Weeds Crabgrass 180 DAT Pre-emergent application ([8]; 0.0625 lb/ac): 0% | % Control of Weeds Crabgrass 180 DAT Pre-emergent application ([8]; 0.125 lb/ac): 0% | % Control of Weeds Crabgrass 180 DAT Pre-emergent application ([8]; 0.25 lb/ac): 0% | % Control of Weeds Common Chickweed 23 DAT ([9]; 0.25 lb/ac): 45% | % Control of Weeds Common Chickweed 23 DAT ([9]; .0125 lb/ac): 23%
